Activity calls are given as the source filed them.

Data set [1] concerns the target T1, Cytochrome P450 1A2 (Homo sapiens, UniProt P05177).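 Further: PubChem cytochrome P450 panel assay, CYP1A2 panel member.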
T1 sequence (P05177 whole entry): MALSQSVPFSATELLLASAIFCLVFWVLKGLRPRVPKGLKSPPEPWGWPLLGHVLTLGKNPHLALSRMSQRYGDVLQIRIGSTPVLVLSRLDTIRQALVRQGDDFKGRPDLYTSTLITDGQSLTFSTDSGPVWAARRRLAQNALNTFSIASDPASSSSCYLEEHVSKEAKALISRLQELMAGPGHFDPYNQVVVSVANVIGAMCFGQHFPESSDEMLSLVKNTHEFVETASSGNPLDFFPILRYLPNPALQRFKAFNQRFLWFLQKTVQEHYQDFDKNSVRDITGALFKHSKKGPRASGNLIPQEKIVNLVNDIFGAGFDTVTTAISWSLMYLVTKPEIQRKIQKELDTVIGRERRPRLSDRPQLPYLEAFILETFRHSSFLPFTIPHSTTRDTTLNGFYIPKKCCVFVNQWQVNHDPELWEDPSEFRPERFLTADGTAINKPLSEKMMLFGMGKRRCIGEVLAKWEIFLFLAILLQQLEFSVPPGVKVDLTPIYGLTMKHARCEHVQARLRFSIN

The nature of data set [2]: Trypanosoma cruzi growth suppression in host cells – NIH3T3 host cells, beta-gal luminescence, confirmation (AID 2044).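 Further: intracellular parasites grown in NIH/3T3 mouse fibroblasts as host cells; luminescent beta-galactosidase reporter signal from transgenic T. cruzi replicating inside host cells; inhibitors lower the luminescence signal.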 In kind it is functional, cell-based.
Data set [3] in a line: NIH3T3 cell viability loss – ATP luminescence, mouse fibroblasts, counter-screen, dose response (AID 2010).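 Further: cells exposed to compound for about 90 hours before reading.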 In kind it is functional, cell-based.
Data set [4] relates to Streptococcus sp. 'group A'. As to the kind of experiment: Streptococcus pyogenes SK(-)GAS viability under kanamycin – luminescence, BacTiterGlo, confirmation, counter-screen for streptokinase expression inhibitor project, dose response (AID 1900). The class given is functional, organism-based. In general terms: Counterscreens check selectivity or assay interference.
The target in data set [5] is T2, Streptokinase A (Streptococcus pyogenes serotype M1, UniProt P10520).
T2 sequence (P10520 whole entry): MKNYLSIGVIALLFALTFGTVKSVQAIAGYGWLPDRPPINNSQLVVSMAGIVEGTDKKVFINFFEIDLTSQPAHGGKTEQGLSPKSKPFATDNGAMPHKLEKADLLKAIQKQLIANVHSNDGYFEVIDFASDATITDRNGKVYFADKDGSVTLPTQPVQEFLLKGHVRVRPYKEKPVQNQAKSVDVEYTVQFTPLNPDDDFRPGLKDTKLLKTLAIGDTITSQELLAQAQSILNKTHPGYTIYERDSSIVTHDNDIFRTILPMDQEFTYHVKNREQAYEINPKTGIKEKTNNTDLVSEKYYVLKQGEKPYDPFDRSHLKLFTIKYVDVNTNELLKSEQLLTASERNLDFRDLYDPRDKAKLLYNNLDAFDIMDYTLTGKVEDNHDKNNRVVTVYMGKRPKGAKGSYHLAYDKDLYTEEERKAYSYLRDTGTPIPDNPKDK
As to the kind of experiment: viability-normalized secreted streptokinase activity reduction – plasminogen activation absorbance, OD405, dose response (AID 1914).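 Further: secreted streptokinase activity via plasminogen activation per viability signal from cell pellet.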 The class given is functional, Streptococcus pyogenes M1 GAS.

Data set [6] concerns Streptococcus. As to the kind of experiment: GAS UMAA2166 growth inhibition – luminescence, BacTiterGlo, counter-screen for streptokinase expression inhibitor project, dose response (AID 1915).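 Further: potency for reduction of bacterial viability or growth.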 The class given is functional, organism-based.
A short description of data set [7]: Luminescence Cell-Based Dose Response HTS to Identify Activators of Luciferase Translation or Activity in H4 […] Cells. [Related pubchem assays: 1829 (Project Summary), 1814 (Primary HTS)]. In kind it is functional.
In data set [8] the test system is H4. As to the kind of experiment: Luminescence Cell-Based Dose Response HTS to Identify Activators of 5'UTR Stem-Loop Driven Prion Protein mRNA Translation in H4 Neuroglioblastoma Cells. [Related pubchem assays: 1829 (Project Summary), 1814 (Primary HTS)]. In kind it is functional. Conditions: Homo sapiens.
Data set [9] has as its target Cytochrome P450 2C19 (Homo sapiens, UniProt P33261). As to the kind of experiment: Cytochrome panel assay with activity outcomes. Panel member name: p450-cyp2c19 Compounds with AC50 equal or less than 10 uM are considered active. The class given is functional.

Chain of Cytochrome P450 2C19 (P33261 whole entry): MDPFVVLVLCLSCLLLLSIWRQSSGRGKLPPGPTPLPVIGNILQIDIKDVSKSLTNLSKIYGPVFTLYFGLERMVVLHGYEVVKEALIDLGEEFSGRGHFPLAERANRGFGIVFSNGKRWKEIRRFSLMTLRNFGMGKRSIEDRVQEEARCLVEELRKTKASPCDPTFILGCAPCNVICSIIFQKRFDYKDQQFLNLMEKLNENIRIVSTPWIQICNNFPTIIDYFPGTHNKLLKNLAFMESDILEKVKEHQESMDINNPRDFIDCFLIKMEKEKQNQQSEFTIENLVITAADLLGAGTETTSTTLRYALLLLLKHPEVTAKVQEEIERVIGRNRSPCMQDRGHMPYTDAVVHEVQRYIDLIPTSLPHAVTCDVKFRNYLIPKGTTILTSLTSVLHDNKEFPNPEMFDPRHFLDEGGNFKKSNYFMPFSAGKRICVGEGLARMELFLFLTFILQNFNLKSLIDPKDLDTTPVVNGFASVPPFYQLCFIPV

As usually defined, the AC50 is the concentration giving half of the maximal activity seen. In the case of `NCCc1ccc(S(=O)(=O)F)cc1`, in [1], the concentration at half-maximal activity (AC50) is 15.8 µM (inconclusive).

The term EC50 denotes the concentration giving half of the maximal effect. Turning to `Cc1ccc(Nc2ccc([N+](=O)[O-])nc2[N+](=O)[O-])cc1`, the half-maximal effective concentration (EC50) in data set [2] is 1570 nM (active); in data set [3], > 60 µM (not active).

As for `Cc1ccc(S(=O)(=O)N(C(=N)N)c2nc(N(C)C)nc(N(C)C)n2)cc1`, the EC50 in data set [2] was 879 nM (active); in data set [3], > 60 µM (not active).

Regarding `CCOc1ccc(CN2CCN(Cc3cccc4nonc34)CC2CCO)cc1` (configuration not stated), the results for the EC50 in [2] and in data set [3] were 559 nM (active) and > 60 µM (not active), respectively.

Turning to `CCCCCCn1c(=O)c(C(=O)Nc2c(C)n(C)n(-c3ccccc3)c2=O)c(O)c2ccccc21`, the half-maximal effective concentration (EC50) in data set [4] is 3.09 µM (active); in data set [5], 3.63 µM (active); in [6] it was 8.06 µM (active).

As for `Oc1ccc(-c2nc3c4c(ncn3n2)-c2ccccc2CC42CCCC2)cc1`, the EC50 in data set [4] is 0.909 µM (active); in data set [6] it was 0.936 µM (active).

Consider `CCSc1n[nH]c2c3cccc(C)c3nc-2n1`, for which the EC50 was 2.08 µM (active) in [7] and > 120 µM (not active) in data set [8].

In the case of `CCN1CCC2(CC1)NC(CO)(CO)CO2`, the half-maximal activity concentration (AC50) entry in [9] is recorded as “inconclusive”.

For `CCN=C(S)NNC(=O)c1cc(C)on1`, in [9] (read-out: AC50), the half-maximal activity concentration (AC50) is 7.94 µM (inconclusive).

In the case of `Cc1c(Cl)cccc1NC(=O)COC(=O)c1c2c(nc3ccccc13)CCN(Cc1ccccc1)C2`, the EC50 in data set [2] was 1630 nM (active); in data set [3], > 60 µM (not active).

In the case of `CC(C)(C)CNC(CO)C12CC3CC(CC(C3)C1)C2` (configuration not stated), in data set [9] (read-out: AC50), the AC50 was 15.8 µM (inconclusive).

As to `COc1ccc(CCNC(=O)CCCCCN2C(=O)c3ccccc3C2=O)cc1`, in data set [1], the AC50 was 25.1 µM (inconclusive).

As to `c1ccc(Nc2ccc3c4c(cccc24)CC3)cc1`, the EC50 in data set [2] is 970 nM (active); in [3] it was 59.5 µM (active).

Take `CCOC(=O)c1ccc(OC(=O)CCCCCNC(=N)N)cc1`: the AC50 in [1] is 12.6 µM (inconclusive).

Regarding `COc1ccc(-c2cc3n(n2)CCc2nc4ccccc4n2-3)cc1`, the EC50 in data set [7] is 10.5 µM (active); in data set [8], 12.5 µM (active).

With `O=C(NCc1ccccc1)C(=O)NCC1OCCN1S(=O)(=O)c1ccc([N+](=O)[O-])cc1` (configuration not stated), the results for the EC50 in data set [2] and in data set [3] were 782 nM (active) and > 60 µM (not active), respectively.

Take `CCCCCCOC(=O)C(C#N)c1nc2ccccc2nc1N1CCN(C)CC1` (configuration not stated): the EC50 is 2570 nM (active) in data set [2] and 11.3 µM (active) in [3].

Take `COC(=O)[C@@]1(Cc2ccc(F)cc2)[C@@H]2[C@@H](CC(=O)[C@H]2CC(=O)C(=O)N(C)C)CN1C(=O)c1ccccc1`: the AC50 in data set [9] (read-out: AC50) is 39.8 µM (inconclusive).

Regarding `COc1ccccc1OCCCn1c(C)c(C#N)c2ccccc21`, the EC50 in data set [4] is 21.2 µM (active); in data set [5] it was 23.2 µM (active); in data set [6], > 150 µM (not active).

With `Cc1cccc(N2CCN(C(=O)C34CC5CC(CC(C5)C3)C4)CC2)c1C`, the concentration giving a half-maximal response (EC50) in data set [4] was 3.81 µM (active); in data set [5], 15.2 µM (active); in data set [6] it was 11.3 µM (active).

Regarding `COC(=O)C1=CN(c2ccc(OC)cc2)C=C(C(=O)OC)C1c1ccc([N+](=O)[O-])cc1`, the half-maximal effective concentration (EC50) was 1940 nM (active) in [2] and > 30 µM (not active) in [3].

On to `Cn1c(O)c(C(c2ccccn2)c2c(O)n(C)c(=S)[nH]c2=O)c(=O)[nH]c1=S`, for which, in [9] (read-out: AC50), the AC50 was 0.316 µM (inconclusive).

As for `Cc1ccc(C)c(C(=O)COC(=O)c2cc(Cl)nc3ccccc23)c1`, the values for the concentration for a half-maximal effect (EC50) in data set [4], in data set [5] and in data set [6] were 60.6 µM (active), 19.4 µM (active) and > 150 µM (not active), respectively.

`O=C(NCCCN1CCCC1)C1CCN(C(=O)c2cc3sccc3n2Cc2ccc(F)cc2)CC1`: the figures for the EC50 in [2] and in data set [3] were 1320 nM (active) and > 60 µM (not active), respectively.

On to `Cc1cc(NC(=O)/C=C/c2ccccc2Cl)no1`, for which the results for the EC50 in data set [7] and in data set [8] were 118 µM (active) and 9.55 µM (active), respectively.

With `CC1c2ccccc2SC(CCCN(C)C)c2ccccc21` (configuration not stated), the EC50 in data set [2] was 639 nM (active); in data set [3], > 60 µM (not active).

As for `CCn1ccc(C(=O)NC2C(=O)N3C(C(=O)O)=C(C)CSC23)n1` (configuration not stated), the AC50 in [9] (read-out: AC50) was 14.1 µM (inconclusive).

Take `N=C(Cc1ccc(Cl)cc1)NOC(=O)c1cccc2ccccc12`: the EC50 is 810 nM (active) in [2] and > 60 µM (not active) in data set [3].

As for `COc1ccc(-c2nnc(NC(=O)C3CCCN3S(=O)(=O)c3cccs3)o2)cc1` (configuration not stated), the EC50 in [4], in [5] and in data set [6] was > 150 µM (not active) in each case.

Turning to `Cc1c(C(=O)Nc2cccc([N+](=O)[O-])c2)csc1-c1ccccc1`, the results for the EC50 in data set [2] and in [3] were 1430 nM (active) and > 60 µM (not active), respectively.

`CN1C2C=C3C(C#N)=C(N)C(C#N)(C#N)[C@H](c4c(F)cccc4F)[C@H]3C1CC2` (some centres not stated): in data set [9] (read-out: AC50), the AC50 is 22.4 µM (inconclusive).

In the case of `COc1ccc(-c2cnnn2-c2ccc(NC(=O)c3ccco3)cc2)cc1OC`, the AC50 in data set [1] is 14.1 µM (inconclusive).

In the case of `Cc1cc(=O)c(C(=O)O)cn1Nc1ccc(Cl)cc1`, the EC50 is 3.15 µM (active) in data set [4], > 150 µM (not active) in data set [5] and 14.5 µM (active) in data set [6].

Turning to `CC1(C)Cc2c(sc3nc(-c4cc5ccccc5o4)n(N)c(=O)c23)CO1`, the EC50 in [7] is 0.817 µM (active); in [8], > 120 µM (inconclusive).

As to `Cc1ccc(-c2[nH]nc(N)c2N=Nc2ccccc2C)cc1`, the half-maximal effective concentration (EC50) in data set [4] was 2.63 µM (active); in [5], > 150 µM (not active); in data set [6], 8.03 µM (active).

Regarding `CS(=O)(=O)c1ccc(/C=N\NC(N)=S)cc1`, the AC50 in data set [1] was 5.01 µM (inconclusive).

Regarding `CC1CCCN(C(=O)C(=O)c2cn(CC(=O)N3CCCCCC3)c3ccccc23)C1` (configuration not stated), the EC50 was 765 nM (active) in data set [2] and > 60 µM (not active) in [3].

Turning to `CC(C)CN=C(S)N1CCN(C)CC1`, in data set [9] (read-out: AC50), the AC50 was 39.8 µM (inconclusive).

In the case of `COc1cc(/C=C/C(=O)OC2CC3CCC2(C)C3(C)C)ccc1O` (configuration not stated), the results for the EC50 in data set [4], in data set [5] and in [6] were 6.88 µM (active), 7.32 µM (active) and 6.7 µM (active), respectively.

Regarding `COC(=O)[C@@H]1CC[C@H](C)[C@@H](c2ccc(C)cc2)N1C(=O)c1ccc(/C=N\OC[C@@H](C)[C@H](OCc2ccccc2)C(C)C)cc1`, in data set [9] (read-out: AC50), the AC50 is 6.31 µM (inconclusive).

For `O=C(Nc1cccc(Cl)c1N1CCCC1)c1ccc(Br)o1`, the EC50 was 4.12 µM (active) in data set [4], > 150 µM (not active) in data set [5] and 6.85 µM (active) in [6].

Consider `O=c1c2cc(N3CCOCC3)ccc2[nH]c(=S)n1CCc1ccccc1`, for which the values for the EC50 in data set [4], in [5] and in data set [6] were 0.447 µM (active), > 150 µM (not active) and 12.3 µM (active), respectively.

Consider `COc1ccc(NC(=O)C2CC(=O)NC3=C2C(=O)CC(C)(C)C3)cc1` (configuration not stated), for which the AC50 in [9] (read-out: AC50) was 39.8 µM (inconclusive).

`Cc1cc(C)c(S(C)(=O)=O)c(Oc2ccc(F)cc2)n1`: in [9] (read-out: AC50), the AC50 is 20 µM (inconclusive).

As to `Cc1cc2c(O)nc(N)nc2nc1C`, the AC50 in data set [1] was 6.31 µM (inconclusive).

Take `O=C(CCC(=O)Nc1cc(C(F)(F)F)ccc1Cl)N/N=C\c1cc([N+](=O)[O-])ccc1O`: the results for the 50% effective concentration (EC50) in [4] and in data set [6] were 0.675 µM (active) and 1.44 µM (active), respectively.

Consider `C[C@H]1[C@H](C)CC[C@]2(C)CC[C@]3(C)C(=CC[C@@H]4[C@@]5(C)CC[C@@H](O)[C@](C)(C(=O)O)[C@@H]5CC[C@]43C)[C@H]12` [BOSWELLIC ACID], for which the EC50 in data set [4] was 0.705 µM (active); in [6], 0.963 µM (active).
